We go through four compounds from patent publication US5120851A, “Preparation process for making water-soluble lysine salts of (+)2-(4-fluorophenyl)-alpha-methyl-5-benzoxazole acetic acid” (Euroresearch S.r.l., priority 1988, dated 1992).

Series [1] is described as follows: LD50 by the Litchfield-Wilcoxon method on mice, progressive oral doses. The note with it: mouse, in vivo. Here is the method:
(§1) The LD50 was determined by the Litchfield-Wilcoxon method on mice using progressive oral doses. […] The paw volume is checked 2, 4 and 6 hours after inoculating the carrageen.

Series [2] relates to experimental edema induced by carrageen in a rat's paw. Kind of series: experimental edema induced by carrageen in a rat's paw. Format: in vivo, rat (Sprague Dawley--Charles River). As to conditions: for TI (therapeutic index) LD50 /ED50: LD50 mice oral / ED50 rat paw edema; for ED50: Rattus norvegicus, rat paw carrageen edema, dosed 60 minutes before carrageen, paw volume at 2, 4 and 6 hours. As for the experimental part: as §1

A short description of series [3]: water-solubility at 20° C. Format: physicochemical.
The conditions of series [4]: cited from earlier work.
For series [5] the following is noted: prior art statement; cited from earlier work.

The structures appear in SMILES notation. Structures can show the parent of a compound that is named as a salt.

Broadly, the LD50 is the dose expected to kill half of the subjects tested. Read a low LD50 as a more toxic substance. As usually defined, the ED50 is the dose that gives a 50% effect, or the effect in half of the subjects. Lower therefore signals an effect at a small dose. In general, solubility refers to the dissolved amount per volume that the medium holds. `C[C@H](C(=O)O)c1ccc2oc(-c3ccc(F)cc3)nc2c1` (racemic) [Example 1, salt of (+)2-(4-fluorophenyl)-alpha-methyl-5-benzoxazole acetic acid with DL-lysine] showed a median lethal dose (LD50) in series [1] (expressed as flunoxaprofen) of 720 mg/kg. The “TI (therapeutic index) LD50 /ED50” value in series [2] (listed as Salt of flunoxaprofen with DL-lysine) stood at 129.96. The compound also yielded an ED50 in series [2] (expressed as flunoxaprofen) of 5.54 mg/kg. The solubility in series [3] (water) was 1000 mg/mL.
As for `O=C(O)Cc1ccccc1Nc1c(Cl)cccc1Cl` [Diclofenac], the ED50 in series [2] amounted to 10 mg/kg.
`C[C@H](C(=O)O)c1ccc2oc(-c3ccc(F)cc3)nc2c1` [Example 2]: in series [3] (compared with Example 1), the “water-solubility (in words)” value is “as in Example 1”.
On to `C[C@H](C(=O)O)c1ccc2oc(-c3ccc(F)cc3)nc2c1` [Flunoxaprofen, (+)2-(4-fluorophenyl)-alpha-methyl-5-benzoxazole acetic acid], for which the 50% lethal dose (LD50) in series [1] worked out at 724 mg/kg. Besides, in series [2], the “TI (therapeutic index) LD50 /ED50” value came to 121.18 and the 50% effect level (ED50) was put at a dose of 5.97 mg/kg. Also, the “activity of the dextrorotatory form” value in series [4] (Italian patent No. 1,080,779) is given as “particularly active”. For the same compound, the “anti-inflammatory, analgesic and antipyretic activity” value in series [4] (J. Medic. Chem. 1975, vol 18, No. 1, pp 53-58) was “considerable anti-inflammatory, analgesic and antipyretic activity”. Besides, in series [5], the water-solubility result was “very limited”.
